Holding throughout (experiment): NCI anticancer screen, dose series, 48 h
Assay [1] has as its system PC-3 prostate.
Assay [2] concerns T-47D breast.
Assay [3] concerns MDA-MB-435.
For assay [4], the system named is MDA-MB-231 breast.
For assay [5], the system named is HOP-62 NSCLC.
Assay [6] deals with HCC-2998 colon.
Assay [7] has as its system NCI-H460 lung.
Assay [8] relates to RXF 393 renal.

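Protocol summary: plate cells (96-well), add compound at 5 concentrations, incubate 48 h, interpolate endpoints linearly. The concentration for 50% growth inhibition is given as GI50. TGI is the concentration that stops growth completely.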

`C[C@]12CC[C@@H]3c4ccc(O)cc4C(O)C[C@H]3[C@@H]1CCC2=O` (some centres not stated): the GI50 in assay [1] was more than 100000 nM; in assay [2] it was more than 100 µM; in assay [3], more than 100 µM; in assay [4], more than 100 µM; in assay [5], more than 100 µM; in assay [6] it was 84.2 µM. Moreover, the GI50 in assay [7] was more than 100000 nM. In addition, the TGI in assay [1], in assay [2], in assay [3], in assay [4], in assay [5] and in assay [6] was more than 100 µM throughout. In assay [7], this molecule returned a TGI of more than 100 µM.

Consider `COc1ccccc1Nc1nc(NNC(=O)Cc2ccccc2)nc(NNC(=O)c2ccncc2)n1`, for which the TGI in assay [2], in assay [4], in assay [5], in assay [6] and in assay [7] was more than 10 µM throughout.

On to `Cc1ccc(SC(=O)N2C(=S)NC(=NC3CCCCC3)C23CCCCC3)cc1`, for which the TGI in assay [8], in assay [1], in assay [2], in assay [3], in assay [4] and in assay [5] was more than 100 µM each time. In addition, the TGI in assay [6] and in assay [7] was more than 100 µM each time.

As for `O=C1NC2(CN3CCC2CC3)C(=O)N1CN(Cc1ccccc1)c1ccccc1` (configuration not stated), the TGI in assay [8], in assay [1], in assay [2], in assay [3], in assay [4] and in assay [5] was more than 100 µM in each case. Besides, the TGI in assay [6] and in assay [7] was more than 100 µM throughout.

Turning to `Cc1cc(N/N=C/c2nc(-c3ccc(Cl)cc3)oc2C)c2cc(Cl)ccc2n1`, the GI50 is 3.57 µM in assay [8]; 2100 nM in assay [1]; 1.69 µM in assay [2]; 1.68 µM in assay [3]; 3.25 µM in assay [4]; 1.92 µM in assay [5]. The GI50 in assay [6] was 2.86 µM. The TGI is 15.8 µM in assay [8]; 4.81 µM in assay [1]; 3.36 µM in assay [2]; 3.44 µM in assay [3]; 10.3 µM in assay [4]; 3.76 µM in assay [5]. Further, the TGI in assay [6] stood at 7.32 µM.

Turning to `c1cc(CNC2C3CCC(C3)C2c2c[nH]c3ccccc23)cc(CNC2C3CCC(C3)C2c2c[nH]c3ccccc23)c1` (configuration not stated), the TGI is 2.7 µM in assay [1], 2.81 µM in assay [4] and more than 100 µM in assay [7]. Further, the GI50 in assay [7] was 313 nM.

Regarding `CCOc1c(Cl)cc(CNC(C)C(O)c2ccccc2)cc1OC` (configuration not stated), the GI50 in assay [8] was 16.4 µM; in assay [1], 30700 nM; in assay [2] it was 16.5 µM; in assay [3], 16.2 µM; in assay [4], 15.6 µM; in assay [5] it was 31 µM. Besides, the GI50 is 16.6 µM in assay [6] and 18300 nM in assay [7]. Also, the TGI was 52.1 µM in assay [8]; more than 100 µM in assay [1]; 46.5 µM in assay [2]; 32.3 µM in assay [3]; 54.7 µM in assay [4]; more than 100 µM in assay [5]. Besides, the figures for the TGI in assay [6] and in assay [7] were 32.7 µM and 35.9 µM, respectively.

Turning to `Cc1c2ccc(N(C)c3ccnc(Nc4cccc(S(N)(=O)=O)c4)n3)cc2nn1C`, the GI50 is 7.14 µM in assay [8]; 9230 nM in assay [1]; 5.27 µM in assay [2]; 6.74 µM in assay [3]; 8.47 µM in assay [4]; 9.03 µM in assay [5]. In addition, the GI50 is 18.9 µM in assay [6] and 7230 nM in assay [7]. Further, the TGI in assay [8] is more than 22.7 µM; in assay [1], more than 25 µM; in assay [2], 21.8 µM; in assay [3], more than 22.3 µM; in assay [4], more than 25 µM; in assay [5], more than 25 µM. Moreover, the TGI in assay [6] and in assay [7] was more than 25 µM throughout.

For `COc1cc(Cn2c(-c3nonc3N)nc3ccccc32)ccc1C`, the GI50 in assay [8] is 0.304 µM; in assay [1], 399 nM; in assay [2], 0.574 µM; in assay [3] it was 0.168 µM; in assay [4], 1.02 µM; in assay [5], 0.568 µM. The GI50 in assay [6] was 1.42 µM; in assay [7] it was 377 nM. Besides, the TGI is 3.35 µM in assay [8]; more than 100 µM in assay [1]; more than 100 µM in assay [2]; 0.642 µM in assay [3]; 38.1 µM in assay [4]; 21.3 µM in assay [5]. Moreover, the TGI in assay [6] and in assay [7] was more than 100 µM throughout.

Consider `c1nnc(NCNc2nncs2)s1`, for which the TGI in assay [8], in assay [1], in assay [2], in assay [3], in assay [4] and in assay [5] was more than 100 µM throughout. The TGI is 84.2 µM in assay [6] and 83.6 µM in assay [7].

For the molecule `OCC1OC(n2cnc3c(/C=C(/O)c4ccccc4)ncnc32)C(O)C1O` (configuration not stated), the TGI in assay [8] is more than 100 µM; in assay [1], more than 62.4 µM; in assay [2], more than 100 µM; in assay [3] it was more than 100 µM; in assay [4], more than 30 µM; in assay [5] it was more than 100 µM. Further, the TGI in assay [7] stood at 7.56 µM.

Consider `CNC(=S)N/N=C/c1ccc([N+](=O)[O-])s1`, for which the TGI in assay [8], in assay [1], in assay [2], in assay [3], in assay [4] and in assay [5] was more than 10 µM each time. Also, the TGI in assay [6] and in assay [7] was more than 10 µM throughout.

Consider `Nc1ccc(S(=O)(=O)NCc2nccs2)cc1`, for which the TGI in assay [8] is more than 100 µM; in assay [1], more than 100 µM; in assay [2], 71.8 µM; in assay [3], 38.8 µM; in assay [4] it was 68.2 µM; in assay [5] it was more than 100 µM. The same molecule had a TGI in assay [7] of more than 100 µM.

For the molecule `N#C[C@@H]1C(n2ccc(N)nc2=O)O[C@H](CO)[C@H]1O` (some centres not stated), the GI50 in assay [8] was more than 100 µM; in assay [1], 97400 nM; in assay [2], more than 100 µM; in assay [3] it was more than 73 µM; in assay [4], more than 100 µM; in assay [5], 3.97 µM. Besides, the GI50 in assay [6] was more than 100 µM; in assay [7], 693 nM. Also, the TGI in assay [8], in assay [1], in assay [2], in assay [3], in assay [4] and in assay [5] was more than 100 µM each time. Moreover, the TGI in assay [6] and in assay [7] was more than 100 µM in each case.

Take `Cc1ccc(S(=O)(=O)N=Nc2c(O)[nH]c3c(Cl)cc(Cl)cc23)cc1`: the TGI in assay [8], in assay [1], in assay [3], in assay [4], in assay [5] and in assay [6] was more than 100 µM in each case. The TGI in assay [7] was more than 100 µM.

Turning to `C=C1C(=O)O[C@H]2C[C@@]3(C)[C@H](O)CCC(=C)[C@@H]3[C@@H](OC(C)=O)[C@H]12`, the TGI is 14.7 µM in assay [8]; 37.3 µM in assay [1]; 29.5 µM in assay [2]; 44.4 µM in assay [3]; 36.6 µM in assay [4]; 32.8 µM in assay [5]. Besides, the TGI in assay [6] was 30.3 µM; in assay [7], 25.7 µM.

`COC(=O)C1=C(C(=O)OC)SC(=C(Cl)C(=S)Sc2ccccc2N)S1`: the GI50 was 18.1 µM in assay [8]; 29600 nM in assay [1]; 39.6 µM in assay [2]; 29.3 µM in assay [3]; 16.6 µM in assay [4]; 13.5 µM in assay [5]. Moreover, in assay [7], the GI50 was 19600 nM. In addition, the TGI was 38 µM in assay [8]; more than 100 µM in assay [1]; more than 100 µM in assay [2]; more than 100 µM in assay [3]; 42.9 µM in assay [4]; 33.2 µM in assay [5]. The TGI in assay [7] amounted to 35.5 µM.

For the molecule `CCN(CC)CCCC(C)Nc1c2ccc(C)cc2nc2ccc(OC)cc12` (configuration not stated), the GI50 was 1.44 µM in assay [8]; 1940 nM in assay [1]; 11.8 µM in assay [2]; 1.6 µM in assay [3]; 1.61 µM in assay [4]; 1.37 µM in assay [5]. The GI50 in assay [7] is 1200 nM. Further, the TGI in assay [8] was determined as 2.88 µM; in assay [1], 10.8 µM; in assay [2], 33.9 µM; in assay [3], 3.38 µM; in assay [4], 5.41 µM; in assay [5] it was 3.49 µM. The TGI in assay [7] stood at 3.74 µM.

In the case of `COc1ccc(-c2cn[nH]c2-c2cc(OC)c3c(c2)OCCO3)cc1`, the GI50 was 0.219 µM in assay [8]; 128 nM in assay [1]; 0.0266 µM in assay [3]; 0.179 µM in assay [4]; 0.264 µM in assay [5]; 0.673 µM in assay [6]. In addition, the GI50 in assay [7] is 68.6 nM. Further, the TGI worked out at 2.77 µM in assay [8]; 39 µM in assay [1]; 0.0977 µM in assay [3]; 10.9 µM in assay [4]; 47.6 µM in assay [5]; 20.4 µM in assay [6]. The same molecule registered a TGI in assay [7] of 11.4 µM.

As for `O=C(O)CSc1ncccc1[N+](=O)[O-]`, the TGI in assay [8], in assay [1], in assay [2], in assay [3], in assay [4] and in assay [5] was more than 100 µM each time. The molecule further showed a TGI in assay [7] of more than 100 µM.

As for `CCN(CCNc1ccc(C)c2sc3ccccc3c(=O)c12)CC(C)(C)O`, the GI50 in assay [1] was 12900 nM; in assay [2], 13.4 µM; in assay [3], 6.51 µM; in assay [4] it was 6.88 µM; in assay [5], 14.6 µM; in assay [6], 8.81 µM. The GI50 in assay [7] was 3240 nM. For the same molecule, the TGI came out at 53.5 µM in assay [1]; 47.3 µM in assay [2]; 28.6 µM in assay [3]; 23.7 µM in assay [4]; 34.3 µM in assay [5]; 27.3 µM in assay [6]. In assay [7], the TGI was 11.2 µM.

Take `COc1ccc(CN2c3ccccc3CCc3ccccc32)cc1F`: the GI50 was 489 nM in assay [1]; 0.394 µM in assay [2]; 1.35 µM in assay [4]; 0.529 µM in assay [5]; 8.9 µM in assay [6]; 419 nM in assay [7]. Also, the TGI in assay [1] is more than 100 µM; in assay [2], more than 100 µM; in assay [4], 79.7 µM; in assay [5] it was more than 100 µM; in assay [6], more than 100 µM; in assay [7], more than 100 µM.

For the molecule `Cn1c(=O)c2c(ncn2CN2CCN(Cn3cnc4c3c(=O)n(C)c(=O)n4C)CC2)n(C)c1=O`, the TGI was 44.1 µM in assay [8]; more than 100 µM in assay [1]; 89.1 µM in assay [2]; more than 100 µM in assay [3]; more than 100 µM in assay [4]; more than 100 µM in assay [5]. This molecule also returned a TGI in assay [7] of 57.8 µM.

As for `Fc1cccc(Cl)c1/C=N\N=C1c2ccccc2-c2ccccc21`, the TGI in assay [8], in assay [1], in assay [2], in assay [3], in assay [4] and in assay [5] was more than 100 µM throughout. Besides, the TGI in assay [7] is more than 100 µM.

For `COc1ccc(Cl)cc1Nc1nc(C(F)(F)F)ccc1C(=O)N/N=C/c1cc(OC)c(OC)c(OC)c1`, the GI50 in assay [1] was 2400 nM; in assay [2], 1.39 µM; in assay [3], 2.41 µM; in assay [4], 2.21 µM; in assay [5], 5.17 µM; in assay [6] it was 2.24 µM. For the same molecule, in assay [7], the GI50 is 2680 nM. In addition, the TGI in assay [1] stood at 17.4 µM; in assay [2], 8.03 µM; in assay [3], 7.72 µM; in assay [4] it was 8.66 µM; in assay [5], 20.5 µM; in assay [6], 19.7 µM. Besides, in assay [7], the TGI came to 10.1 µM.

On to `Cc1cc(=O)oc2cc(O)c(CN(C)CC(=O)O)cc12`, for which the TGI in assay [8], in assay [1], in assay [2], in assay [3], in assay [4] and in assay [6] was more than 100 µM throughout. In assay [7], the TGI was more than 100 µM.

These data come from PubChem BioAssay (NCI).
